The values that follow come from patent publication US5516777A, “Condensed pyrazole derivatives, and androgen inhibitor” (Otsuka Pharmaceutical Co., Ltd., priority 1992, dated 1996).

In general, IC50 refers to the point on the concentration scale where inhibition reaches its midpoint.

Data set [1] has as its target T1, rat prostate androgen receptor (Rattus norvegicus, UniProt P15207).
T1 sequence (P15207 1-902): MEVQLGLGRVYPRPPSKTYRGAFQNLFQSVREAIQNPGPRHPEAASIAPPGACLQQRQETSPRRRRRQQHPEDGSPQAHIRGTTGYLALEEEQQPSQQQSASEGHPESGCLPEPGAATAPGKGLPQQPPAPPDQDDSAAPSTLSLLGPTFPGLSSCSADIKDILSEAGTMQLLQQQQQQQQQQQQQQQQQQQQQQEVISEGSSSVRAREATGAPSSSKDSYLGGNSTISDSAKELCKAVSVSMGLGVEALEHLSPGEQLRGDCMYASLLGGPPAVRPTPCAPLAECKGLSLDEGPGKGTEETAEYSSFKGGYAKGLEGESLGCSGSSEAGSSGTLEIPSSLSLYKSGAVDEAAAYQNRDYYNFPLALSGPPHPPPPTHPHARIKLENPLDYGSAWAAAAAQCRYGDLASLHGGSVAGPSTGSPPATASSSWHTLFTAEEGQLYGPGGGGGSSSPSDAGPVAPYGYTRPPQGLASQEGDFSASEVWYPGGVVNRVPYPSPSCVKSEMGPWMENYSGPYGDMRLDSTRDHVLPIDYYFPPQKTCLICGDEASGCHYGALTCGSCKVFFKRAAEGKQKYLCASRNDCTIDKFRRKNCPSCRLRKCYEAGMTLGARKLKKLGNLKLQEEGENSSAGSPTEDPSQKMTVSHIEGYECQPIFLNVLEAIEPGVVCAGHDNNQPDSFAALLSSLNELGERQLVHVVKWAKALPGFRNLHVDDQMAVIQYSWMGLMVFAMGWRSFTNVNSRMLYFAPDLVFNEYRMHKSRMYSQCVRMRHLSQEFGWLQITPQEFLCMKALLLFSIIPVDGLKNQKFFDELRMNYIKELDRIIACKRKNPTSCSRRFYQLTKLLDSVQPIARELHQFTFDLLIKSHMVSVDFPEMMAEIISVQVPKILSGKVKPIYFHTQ
The note with it: 1 nM ^3 H-mibolerone, 20 hours at 0° C., rat ventral prostate cytosol; read-out: Inhibitory activity on mibolerone specific binding [IC50 (M)].
Description: Assay of inhibitory activity to binding of ^3 H-mibolerone on rat prostate androgen receptor
(1) Preparation of Cytosol from Rat Prostate
The rats were killed 24 hours after castration, and the ventral prostate glands were removed, and was gently homogenized, with three volume of buffer solution A (1.5 mM EDTA, 2 mM dithiothreitol, 10 mM molybdate sodium, 10% by volume of glycerol, 10 mM NaF, 25 mM phosphate sodium, pH 7.2) on ice-water bath, in Polytron, and Potter type homogenizer. The obtained homogenate was filtrated through double gauze, and centrifuged at 105,000×g for 60 minutes at 4° C., and the supernatant was obtained as cytoplasm fraction.
(2) Measurement of Specific binding of ^3 H-mibolerone to Prostate Cytoplasm Androgen Receptor
To the cytoplasm fraction obtained in (1) was added ^3 H-mibolerone (87.0 Ci/millimol), so that a final concentration is adjusted to 1 nM, and at the same time, in order to block binding of ^3 H-mibolerone to progestin receptor, triamsinolone acetonide was added to a final concentration of 5 μM, and the final volume was adjusted to 0.4 ml with buffer solution A, and the reaction mixture was incubated for 20 hours at 0° C. After incubation, 0.5 ml of 60% hydroxylapatite slurry (washed and equilibrate with a buffer solution B: 10 mM NaH2 PO4, 20 mM tris-hydrochloric acid, pH 7.2) was added, and incubated for 10 minutes at 0° C., the solution was transferred onto a glass fiber filter, and washed five times with 5 ml portions of buffer solution B containing 0.1% (weight/volume) of Triton X-100, to remove free ^3 H-mibolerone. This glass fiber was transferred into vial, and 10 ml of aquasol- 2 was added, and the radioactivity was measured, and the total binding amount of ^3 H-mibolerone on prostate cytoplasm androgen receptor was determined.
The nonspecific binding amount was determined similarly by adding an unlabeled 5α-DHT in the reaction solution to a final concentration of 1 μM. The difference between the total binding amount and nonspecific binding amount was determined as the specific binding amount on the androgen receptor.
(3) Inhibitory Activity of Sample Compounds on ^3 H-mibolerone Specific Binding
The various concentrations of compounds obtained in the experiments were added simultaneously with ^3 H-mibolerone to incubate same as in (2), and the specific binding amount of ^3 H-mibolerone on androgen receptor was determined. Comparing this value with the value obtained in (2), the IC50 value of inhibitory activity of the compounds on ^3 H-mibolerone specific binding was determined.

Data set [2] is described as follows: In vitro drug metabolism in rat liver extract. It is filed as in vitro ADME, male Wistar rats. The following applies: pH 7.4, 37° C.; for remaining at 5 min / remaining at 0.25 h / remaining at 0.5 h / remaining at 1 h: rat liver extract; for remaining at 5 min: read-out: Residual amount of test compound, 5 min.; for remaining at 0.25 h: 15 min., read-out: Residual amount of test compound, 15 min.; for remaining at 0.5 h: 30 min., read-out: Residual amount of test compound, 30 min.; for remaining at 1 h: 60 min., read-out: Residual amount of test compound, 60 min.; for half-life: half-life in the rat liver extract, read-out: Half-time period. The procedure: 2. In vitro drug metabolism in rat liver extract
The resistance of the compound against metabolic degradation by rat liver extract was investigated.
The male Wistar rats (weighing about 200 g) were used after fasting for 24 hours. The rat was sacrificed under ether anesthesia, and the livers were removed and were placed onto the ice.
The liver was minced with scissors under ice-cooling, and homogenized in the presence of 4 volumes of 1.15% KCl-0.1M phosphate buffer (pH 7.4) with a Potter type homogenizer. The homogenates were centrifuged at 9,000×g for 10 minutes at 4° C., and the supernatant filtered through the cheese-cloth was used as an enzyme solution.
The constitution of the reaction mixture was shown in below. 0.1M Buffer was sufficiently bubbled in 95% O2 -5% CO2 gas before use.
Glucose 6-phosphate (60.8 mg.ml)
Nicotineamide (9.16 mg/ml)
The tested samples were dissolved in dimethyl sulfoxide. MgCl2 ·6H2 O was dissolved in a distilled water, and all other reagents were dissolved in 0.1M phosphate buffer. The reaction was initiated by adding enzyme solution, and shaked at 37° C. with 120 cycles/minutes in Spitz test tubes with stoppers. The reaction was stopped by adding methanol after 5, 15, 30 and 60 minutes.
After termination of the reaction, samples were mixed by using of a Vortex mixer, and centrifuged at 3,000 rpm for 10 minutes. The supernatant was applied to a high-performance liquid chromatography of which conditons are shown in below. A residual amount of the mother compound was determined at certain time intervals, whererby half-life of the compound in the rat liver extract was calculated.
Column: Chemcosorb 5C18-300 Å 4.6 mm diameter and 150 mm length
Colume temperature: 50° C.

A short description of data set [3]: Oral absorption (blood level after oral administration). It is filed as in vivo. The note with it: Wistar male rat, 30 mg/ml/kg, serum. On the procedure:
After administration, the rat is fixed on a plate with nails and strings. […] The serum was obtained by centrifuging with a blood serum separating tube ([…] tube). To 100 μl of the serum thus obtained was added 300 μl of methanol, and the mixture was centrifuged. Next, 50 μl of the supernatant was applied to a high-performance liquid chromatography, and the blood level of the compound was measured. Conditions of the high-performance liquid chromatography are as follows: Column: […] 300, 4.6 mm diameter and 150 mm length Eluent: 48% CH3 CN-0.01% TFA Flow rate: 1 ml/minute Detection: UV 290 nm Sensitivity: 0.01 AUFS Colume temperature: 50° C. As Comparative Example 10, the compound expressed in the following chemical formula disclosed in U.S. Pat.

As to `COc1cccc(Cc2ccc(-c3cnn4c(O)ncnc34)cc2C)c1` [Example 10, 4-hydroxy-8-[4-(3-methoxyphenylmethyl)-3-methyl]phenylpyrazolo[1,5-a]-1,3,5-triazine], in data set [1], the IC50 was found to be 1.2e-08 M. In data set [2], the remaining at 5 min was found to be 77.6%, the remaining at 0.25 h was found to be 57.1%, the remaining at 0.5 h was found to be 62% and the remaining at 1 h came to 55.2%. Also, the half-life in data set [2] was more than 1 h.

For `Cc1cccc(Cc2ccc(-c3cnn4c(O)ncnc34)cc2)c1` [Example 13, 4-hydroxy-8-[4-(3-methylphenylmethyl)phenyl]pyrazolo[1,5-a]-1,3,5-triazine], the half-maximal inhibitory concentration (IC50) in data set [1] amounted to 1.2e-07 M. Moreover, in data set [2], the remaining at 5 min is 106%, the remaining at 0.25 h is 100%, the remaining at 0.5 h worked out at 97.6% and the remaining at 1 h stood at 81.4%. Besides, the half-life in data set [2] was more than 1 h.

With `Oc1ccnc2c(-c3ccc(Cc4ccccc4)cc3)cnn12` [Example 2, 3-(4-benzylphenyl)-7-hydroxypyrazolo[1,5-a]pyrimidine], the IC50 in data set [1] was found to be 2.8e-07 M. In data set [2], the remaining at 5 min was 81.3%, the remaining at 0.25 h was determined as 86.1%, the remaining at 0.5 h worked out at 84.2% and the remaining at 1 h was 80.2%. In addition, the half-life in data set [2] was more than 1 h.

For `COc1cccc(Cc2ccc(-c3cnn4c(O)ncnc34)cc2)c1` [Example 15, 4-hydroxy-8-[4-(3-methoxyphenylmethyl)phenyl]pyrazolo[1,5-a]-1,3,5-triazine], the IC50 in data set [1] is 9.9e-08 M. In data set [2], the remaining at 5 min is 86.1%, the remaining at 0.25 h amounted to 68.9%, the remaining at 0.5 h came out at 64.7% and the remaining at 1 h worked out at 51.9%. Besides, the half-life in data set [2] is more than 1 h.

For the compound `Cc1ccccc1Cc1ccc(-c2cnn3c(O)ncnc23)cc1` [Example 14, 4-hydroxy-8-[4-(2-methylphenylmethyl)phenyl]pyrazolo[1,5-a]-1,3,5-triazine], the IC50 in data set [1] came out at 6.4e-07 M. In addition, in data set [2], the remaining at 5 min came out at 82.9%, the remaining at 0.25 h is 77.8%, the remaining at 0.5 h is 82.5% and the remaining at 1 h turned out to be 55.5%. Moreover, the half-life in data set [2] was more than 1 h.

In the case of `Cc1cc(-c2cnn3c(O)ncnc23)ccc1Cc1ccccc1` [Example 5, 8-(4-benzyl-3-methyl)phenyl-4-hydroxypyrazolo[1,5-a]-1,3,5-triazine], in data set [1], the IC50 is 3e-08 M. Moreover, in data set [2], the remaining at 5 min is 93.7%, the remaining at 0.25 h worked out at 89.9%, the remaining at 0.5 h stood at 82.7% and the remaining at 1 h was determined as 83.8%. In addition, the half-life in data set [2] is more than 1 h.

Take `COc1cccc(Cc2ccc(-c3cnn4c(O)ccnc34)cc2)c1` [Example 28, 7-hydroxy-3-[4-(3-methoxyphenylmethyl)phenyl]pyrazolo[1,5-a]pyrimidine]: the IC50 in data set [1] was found to be 1.2e-07 M. In data set [2], the remaining at 5 min turned out to be 88.5%, the remaining at 0.25 h was found to be 74.3%, the remaining at 0.5 h was determined as 66% and the remaining at 1 h was found to be 53.4%. Also, in data set [2], the half-life was more than 1 h.

On to `CCc1ccccc1NS(=O)(=O)c1ccc(-c2cnn3c(O)ncnc23)cc1` [Comparative Example 10, reference compound], for which, in data set [3] (30 mg/kg), the concentration at 4 h amounted to 112 ng/mL and the concentration at 8 h was 31 ng/mL. Further, the “Blood Level, 20 minutes” value in data set [3] (20 minutes) came out at 0 ng/mL. Further, in data set [3] (1 hour), the “Blood Level, 1 hours” value worked out at 0 ng/mL. For the same compound, the “Blood Level, 2 hours” value in data set [3] (2 hours) was 0 ng/mL.

Turning to `Oc1ncnc2c(-c3ccc(Cc4ccccc4)cc3)cnn12` [Example 1, 8-(4-benzylphenyl)-4-hydroxypyrazolo[1,5-a]-1,3,5-triazine], the IC50 in data set [1] was 2.8e-07 M. In addition, in data set [2], the remaining at 5 min was determined as 92.2%, the remaining at 0.25 h turned out to be 62.4%, the remaining at 0.5 h worked out at 60.2% and the remaining at 1 h was 42.9%. Also, in data set [2], the half-life amounted to 0.75 h. The compound further showed a concentration at 20 min in data set [3] (30 mg/kg, 20 minutes) of 1590 ng/mL. Besides, the concentration at 1 h in data set [3] (30 mg/kg, 1 hour) is 2690 ng/mL. In addition, in data set [3] (30 mg/kg, 2 hours), the concentration at 2 h came out at 1250 ng/mL. In addition, in data set [3] (30 mg/kg), the concentration at 4 h was 1420 ng/mL and the concentration at 8 h amounted to 731 ng/mL.

As to `COc1cc(-c2cnn3c(O)ncnc23)ccc1Cc1cccc(C)c1` [Example 12], the IC50 in data set [1] stood at 2.3e-08 M. For the same compound, in data set [2], the remaining at 5 min is 93%, the remaining at 0.25 h turned out to be 91.8%, the remaining at 0.5 h was determined as 97.4% and the remaining at 1 h amounted to 90.8%. For the same compound, the half-life in data set [2] is more than 1 h.

For the compound `COc1cccc(Cc2ccc(-c3cnn4c(O)ncnc34)cc2OC)c1` [Example 11], the IC50 in data set [1] stood at 1.8e-08 M. Besides, in data set [2], the remaining at 5 min is 98.3%, the remaining at 0.25 h is 98.8%, the remaining at 0.5 h amounted to 91.5% and the remaining at 1 h stood at 87.9%. For the same compound, the half-life in data set [2] was more than 1 h.
